# From US20020137929A1, “1 - (3-heterocyclylphenyl) isothiourea, -isourea, -guanidine and -amidine herbicidal agents” (Intellectual Property Department, BASF Aktiengesellschaft, priority 1998, published 2002)
# Experiments:
# ORYSAT (Rice, Tebonnet) = assay: Postemergence herbicidal evaluation; assay type: in vivo, Oryza sativa, (L.) Tebonnet; conditions: postemergence
# Procedure, shortened: (§1)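 First, seedlings were raised for around two weeks. Next, test material in 50/50 acetone/water containing 0.5% TWEEN 20 was sprayed through a nozzle at 40 psi, equivalent to about 0.0156–0.500 kg/ha. Finally, after 4–5 weeks in the greenhouse, plants were rated 0–9.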
# [1] = tested on: TRZAWR (Wheat, Winter, cv Riband); assay: Preemergence herbicidal evaluation; assay type: in vivo, Triticum aestivum; conditions: rated 4-5 weeks after treatment
# Procedure, shortened: (§2)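 Scores (0–9) reflect visual comparison with control plants for stand, vigor, malformation, size and chlorosis. Compound was applied to the soil after sowing, before emergence, as an aqueous acetone spray (about 0.0156–0.500 kg/ha), and cups were kept in a greenhouse for 4–5 weeks.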
# ZEAMX (Corn, Field) [2] = assay: Preemergence herbicidal evaluation; assay type: in vivo, Zea mays; conditions: rated 4-5 weeks after treatment
# Procedure, shortened: as §2
# CYPIR (Rice Flatsedge) [3] = assay: Postemergence weed control under flooded paddy conditions; assay type: in vivo, Cyperus iria; conditions: postemergence weeds, rated 3 to 4 weeks after treatment
# Procedure, shortened: (§3)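 With weeds 3 to 5 cm tall and rice at the 1.5 to 2.5 leaf stage, containers were flooded and water held 1.5 to 3 cm above soil. Compounds in 50/50 v/v aqueous/acetone went into the flood water at about 0.0313 to 0.500 kg/ha a.i. Effects were visually rated 0–9 against controls after three to four weeks in the greenhouse.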
# [4] = tested on: ECHORC (Watergrass (Calif.)); assay: Preemergence weed control under flooded paddy conditions; assay type: in vivo, Echinochloa oryzoides; conditions: rated 3-4 weeks after treatment
# Procedure, shortened: (§4)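 Flooded-pot preemergence screen with silt loam and seeds in the upper 0.5 cm. Dose about 0.0313 to 0.500 kg/ha, delivered into flood water; visual 0-9 score after 3 to 4 weeks.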
# CYPSE (Flatsedge) [5] = assay: as above; assay type: in vivo, Cyperus serotinus; conditions: rated 3-4 weeks after treatment
# Procedure, shortened: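 Seeds or propagules sown in silt loam kept flooded 1.5-3 cm; compounds in 50/50 acetone/water pipetted into flood water at about 0.0313 to 0.500 kg/ha. Greenhouse; visual 0-9 rating versus untreated control 3-4 weeks after treatment.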
# ECHCG (Barnyardgrass) = assay: Preemergence herbicidal evaluation; assay type: in vivo, Echinochloa crus-galli; conditions: rated 4-5 weeks after treatment
# Procedure, shortened: as §2
# ZEAMX (Corn, Field) [6] = assay: Postemergence herbicidal evaluation; assay type: in vivo, Zea mays; conditions: postemergence
# Procedure, shortened: as §1
# [7] = tested on: SAGPY (Arrowhead (Pygmaea)); assay: Postemergence weed control under flooded paddy conditions; assay type: in vivo, Sagittaria pygmaea; conditions: postemergence weeds, rated 3 to 4 weeks after treatment
# Procedure, shortened: as §3
# SETVI (Foxtail, Green) [8] = assay: Preemergence herbicidal evaluation; assay type: in vivo, Setaria viridis; conditions: rated 4-5 weeks after treatment
# Procedure, shortened: as §2
# [9] = tested on: ECHORC (Watergrass (Calif.)); assay: Postemergence weed control under flooded paddy conditions; assay type: in vivo, Echinochloa oryzoides; conditions: postemergence weeds, rated 3 to 4 weeks after treatment
# Procedure, shortened: as §3
# SETVI (Foxtail, Green) [10] = assay: Postemergence herbicidal evaluation; assay type: in vivo, Setaria viridis; conditions: postemergence
# Procedure, shortened: as §1
# CYPSE (Flatsedge) [11] = assay: Postemergence weed control under flooded paddy conditions; assay type: in vivo, Cyperus serotinus; conditions: postemergence weeds, rated 3 to 4 weeks after treatment
# Procedure, shortened: as §3
# CYPIR (Rice Flatsedge) [12] = assay: Preemergence weed control under flooded paddy conditions; assay type: in vivo, Cyperus iria; conditions: rated 3-4 weeks after treatment
# Procedure, shortened: as §4
compound,measurement,setting,value
"COC(=O)C(Cc1ccc(Cl)cc1)N1C(=O)CSC1=Nc1cc(-n2c(=O)cc(C(F)(F)F)n(C)c2=O)c(F)cc1Cl (racemic) [Compound 77, Methyl α-(p-chlorobenzyl)-2-{{2-chloro-5-[3,6-dihydro-3-methyl-2,6-dioxo-4-(trifluoromethyl)-1(2H)-pyrimidinyl]-4-fluorophenyl}imino}-4-oxo-3-thiazolidineacetate, DL-]",ORYSAT herbicidal rating,"ORYSAT (Rice, Tebonnet); rate 0.0158 kg/ha",2.0
same,ORYSAT herbicidal rating,"ORYSAT (Rice, Tebonnet); rate 0.0315 kg/ha",2.0
same,ORYSAT herbicidal rating,"ORYSAT (Rice, Tebonnet); rate 0.0630 kg/ha",3.0
same,Preemergence herbicidal rating TRZAWR,[1]; rate 0.0156 kg/ha,0.0
same,Preemergence herbicidal rating TRZAWR,[1]; rate 0.0313 kg/ha,0.0
same,Preemergence herbicidal rating TRZAWR,[1]; rate 0.0625 kg/ha,0.0
same,Preemergence herbicidal rating TRZAWR,[1]; rate 0.1250 kg/ha,1.0
same,Preemergence herbicidal rating TRZAWR,[1]; rate 0.2500 kg/ha,0.0
same,Preemergence herbicidal rating ZEAMX,"ZEAMX (Corn, Field) [2]; rate 0.0156 kg/ha",2.0
same,Preemergence herbicidal rating ZEAMX,"ZEAMX (Corn, Field) [2]; rate 0.0313 kg/ha",0.0
same,Preemergence herbicidal rating ZEAMX,"ZEAMX (Corn, Field) [2]; rate 0.0625 kg/ha",0.0
same,Preemergence herbicidal rating ZEAMX,"ZEAMX (Corn, Field) [2]; rate 0.1250 kg/ha",0.0
same,Preemergence herbicidal rating ZEAMX,"ZEAMX (Corn, Field) [2]; rate 0.2500 kg/ha",1.0
same,Herbicidal rating CYPIR,CYPIR (Rice Flatsedge) [3]; Rate 0.0313 kg/ha,0.0
same,Herbicidal rating CYPIR,CYPIR (Rice Flatsedge) [3]; Rate 0.0625 kg/ha,0.0
same,Herbicidal rating CYPIR,CYPIR (Rice Flatsedge) [3]; Rate 0.1250 kg/ha,0.0
same,Herbicidal rating CYPIR,CYPIR (Rice Flatsedge) [3]; Rate 0.2500 kg/ha,0.0
same,ECHORC herbicidal effect rating,[4]; 0.0313 kg/ha,9.0
same,ECHORC herbicidal effect rating,[4]; 0.0625 kg/ha,9.0
same,ECHORC herbicidal effect rating,[4]; 0.1250 kg/ha,9.0
same,ECHORC herbicidal effect rating,[4]; 0.2500 kg/ha,9.0
same,CYPSE herbicidal effect rating,CYPSE (Flatsedge) [5]; 0.0313 kg/ha,0.0
same,CYPSE herbicidal effect rating,CYPSE (Flatsedge) [5]; 0.0625 kg/ha,0.0
same,CYPSE herbicidal effect rating,CYPSE (Flatsedge) [5]; 0.1250 kg/ha,0.0
same,CYPSE herbicidal effect rating,CYPSE (Flatsedge) [5]; 0.2500 kg/ha,4.0
same,Preemergence herbicidal rating ECHCG,ECHCG (Barnyardgrass); rate 0.0156 kg/ha,0.0
same,Preemergence herbicidal rating ECHCG,ECHCG (Barnyardgrass); rate 0.0313 kg/ha,0.0
same,Preemergence herbicidal rating ECHCG,ECHCG (Barnyardgrass); rate 0.0625 kg/ha,0.0
same,Preemergence herbicidal rating ECHCG,ECHCG (Barnyardgrass); rate 0.1250 kg/ha,0.0
same,Preemergence herbicidal rating ECHCG,ECHCG (Barnyardgrass); rate 0.2500 kg/ha,0.0
same,ZEAMX herbicidal rating,"ZEAMX (Corn, Field) [6]; rate 0.0158 kg/ha",4.0
same,ZEAMX herbicidal rating,"ZEAMX (Corn, Field) [6]; rate 0.0315 kg/ha",3.5
same,ZEAMX herbicidal rating,"ZEAMX (Corn, Field) [6]; rate 0.0630 kg/ha",4.5
same,Herbicidal rating SAGPY,[7]; Rate 0.0313 kg/ha,0.0
same,Herbicidal rating SAGPY,[7]; Rate 0.0625 kg/ha,0.0
same,Herbicidal rating SAGPY,[7]; Rate 0.1250 kg/ha,0.0
same,Herbicidal rating SAGPY,[7]; Rate 0.2500 kg/ha,0.0
same,Preemergence herbicidal rating SETVI,"SETVI (Foxtail, Green) [8]; rate 0.0156 kg/ha",0.0
same,Preemergence herbicidal rating SETVI,"SETVI (Foxtail, Green) [8]; rate 0.0313 kg/ha",0.0
same,Preemergence herbicidal rating SETVI,"SETVI (Foxtail, Green) [8]; rate 0.0625 kg/ha",0.0
same,Preemergence herbicidal rating SETVI,"SETVI (Foxtail, Green) [8]; rate 0.1250 kg/ha",0.0
same,Preemergence herbicidal rating SETVI,"SETVI (Foxtail, Green) [8]; rate 0.2500 kg/ha",9.0
same,Herbicidal rating ECHORC,[9]; Rate 0.0313 kg/ha,9.0
same,Herbicidal rating ECHORC,[9]; Rate 0.0625 kg/ha,9.0
same,Herbicidal rating ECHORC,[9]; Rate 0.1250 kg/ha,9.0
same,Herbicidal rating ECHORC,[9]; Rate 0.2500 kg/ha,9.0
same,SETVI herbicidal rating,"SETVI (Foxtail, Green) [10]; rate 0.0158 kg/ha",1.0
same,SETVI herbicidal rating,"SETVI (Foxtail, Green) [10]; rate 0.0315 kg/ha",6.0
same,SETVI herbicidal rating,"SETVI (Foxtail, Green) [10]; rate 0.0630 kg/ha",7.0
same,Herbicidal rating CYPSE,CYPSE (Flatsedge) [11]; Rate 0.0313 kg/ha,0.0
same,Herbicidal rating CYPSE,CYPSE (Flatsedge) [11]; Rate 0.0625 kg/ha,0.0
same,Herbicidal rating CYPSE,CYPSE (Flatsedge) [11]; Rate 0.1250 kg/ha,0.0
same,Herbicidal rating CYPSE,CYPSE (Flatsedge) [11]; Rate 0.2500 kg/ha,4.0
same,CYPIR herbicidal effect rating,CYPIR (Rice Flatsedge) [12]; 0.0313 kg/ha,0.0
same,CYPIR herbicidal effect rating,CYPIR (Rice Flatsedge) [12]; 0.0625 kg/ha,0.0
same,CYPIR herbicidal effect rating,CYPIR (Rice Flatsedge) [12]; 0.1250 kg/ha,0.0
same,CYPIR herbicidal effect rating,CYPIR (Rice Flatsedge) [12]; 0.2500 kg/ha,0.0
